The text below walks through data of patent publication US8952177B2 (Janssen Pharmaceutica NV, priority 2013, dated 2015).

A word on the Ki: it is the dissociation constant of the complex between target and ligand, obtained from inhibition or displacement. One may read the IC50 as the point on the concentration scale where inhibition reaches its midpoint.

Structures can show the parent of a compound that is named as a salt.

One test addresses human FLAP (Homo sapiens (Human), UniProt P20292). Put plainly: FLAP binding assay (HTRF format). The following applies: human FLAP-containing Sf-9 membranes, 25 nM HTRF ligand, 2 h; average of runs; read-out: FLAP Binding wild type HTRF Ki. The procedure: The ability of the compounds of the present invention to treat a FLAP-mediated disease and/or disorder, or associated symptoms or complications thereof, was determined using the following procedures. Binding assay data represent the average value obtained from two different assay plates, with samples run in duplicate on each plate. Human whole blood assay data represent a single replicate on an assay plate using whole blood from at least one healthy donor.
The assay below is used to test the modulatory activity of compounds against FLAP. Human and mouse FLAP-encoding DNA was amplified by polymerase chain reaction and cloned into pFastBacl (Invitrogen) with a NH2-terminal 6-His tag for expression in Spodoptera frugiperda (Sf-9) cells. FLAP-containing membranes were prepared as was a FITC-labeled FLAP modulator (3-(3-(tert-butylthio)-1-(4-chlorobenzyl)-5-(quinolin-2-ylmethoxy)-1H-indol-2-yl)-2,2-dimethylpropanoic acid). The FLAP binding assay is performed in HTRF format (homogeneous time resolved fluorescence). […] The reaction is allowed to proceed for two hours after which the plate is read on an Envision plate reader in HTRF mode. Data are expressed as a HTRF ratio.
For human FLAP binding assays, data are analyzed with 3DX Explorer software. […] For analysis, data from multiple runs are averaged and each compound may be tested in 2 to 20 runs. Each run comprises two plates and each plate includes duplicates. Data from each plate is averaged and data are imported into 3DX. The data from multiple runs are aggregated as the average of duplicates of the calculated ratios in order to calculate Ki and IC50 values. Numbers in parentheses are the number of runs for the assay.
Background: In TR-FRET formats the signal depends on donor and acceptor labels being close together.

In test [1] the test system is leukotriene pathway in human whole blood (LTB4). Put plainly: Human whole blood assay (LTB4 after calcium ionophore A23187 stimulation). The test is classed as cell-based. To be noted: human whole blood diluted 1:1 in RPMI, 15 min pre-incubation, A23187 7 μg/mL for 30 min at 37° Celsius. The essentials: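 Heparinised human whole blood, diluted 1:1 in RPMI, was preincubated with compound for 15 min at 37° C. before stimulation with A23187 (7 μg/mL) for 30 min. Plasma LTB4 was measured by immunoassay kit and IC50 obtained by 4-parameter fit; single replicate per plate, blood from at least one donor.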

Sequence of human FLAP (P20292 whole entry): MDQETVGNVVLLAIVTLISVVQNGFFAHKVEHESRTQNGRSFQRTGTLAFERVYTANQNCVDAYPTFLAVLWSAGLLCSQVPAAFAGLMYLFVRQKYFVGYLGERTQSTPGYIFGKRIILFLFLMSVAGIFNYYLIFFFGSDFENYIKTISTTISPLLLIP

For `Cc1cnc(COc2ccc3nc([C@H]4CCCC[C@H]4C(=O)O)n(Cc4c(F)cc(-c5ccc(C(F)(F)F)cc5)cc4F)c3c2)c(F)c1` (racemic) [Example 137, racemic cis-2-(1-((3,5-difluoro-4′-(trifluoromethyl)-[1,1′-biphenyl]-4-yl)methyl)-6-((3-fluoro-5-methylpyridin-2-yl)methoxy)-1H-benzo[d]imidazol-2-yl)cyclohexanecarboxylic acid], the Ki at human FLAP came to 0.66 nM. Moreover, in test [1] (Homo sapiens), the IC50 was found to be 91 nM.
`Cc1ccc(COc2ccc3nc([C@H]4CCCC[C@H]4C(=O)O)n(Cc4c(F)cc(-c5ccc(C(F)(F)F)cc5)cc4F)c3c2)nc1` (racemic) [Example 138, racemic cis-2-(1-{[3,5-Difluoro-4′-(trifluoromethyl)biphenyl-4-yl]methyl}-6-[(5-methylpyridin-2-yl)methoxy]-1H-benzimidazol-2-yl)cyclohexanecarboxylic acid]: the Ki at human FLAP was 2.5 nM. Moreover, in test [1] (Homo sapiens), the IC50 was determined as 97 nM.
On to `Cc1ccc(COc2ccc3nc([C@H]4CCCC[C@H]4C(=O)O)n(Cc4cccc(-c5ccc(C(F)(F)F)cc5)c4)c3c2)nc1` (racemic) [Example 145, racemic cis-2-(6-[(5-Methylpyridin-2-yl)methoxy]-1-{[4′-(trifluoromethyl)biphenyl-3-yl]methyl}-1H-benzimidazol-2-yl)cyclohexanecarboxylic acid], for which, at human FLAP, the inhibition constant Ki is 7.2 nM. Also, the IC50 in test [1] (Homo sapiens) turned out to be 920 nM.
For the molecule `Cn1ccc(COc2ccc3nc([C@@H]4CCCC[C@@H]4C(=O)O)n(Cc4cccc(-c5ccc(C(F)(F)F)cc5)c4)c3c2)n1` (racemic) [Example 150, racemic cis-2-(6-[(1-Methyl-1H-pyrazol-3-yl)methoxy]-1-{[4′-(trifluoromethyl)biphenyl-3-yl]methyl}-1H-benzimidazol-2-yl)cyclohexanecarboxylic acid], on human FLAP, the inhibition constant Ki was determined as 1.4 nM. For the same molecule, the 50% inhibitory concentration (IC50) in test [1] (Homo sapiens) is 140 nM.
Take `Cn1cc(Cl)c(COc2ccc3nc([C@@H]4CCCC[C@@H]4C(=O)O)n(Cc4ccc(-c5ccc(C(F)(F)F)cc5)cc4)c3c2)n1` (racemic) [Example 151, racemic cis-2-(6-[(4-Chloro-1-methyl-1H-pyrazol-3-yl)methoxy]-1-{[4′-(trifluoromethyl)biphenyl-4-yl]methyl}-1H-benzimidazol-2-yl)cyclohexanecarboxylic acid]: at human FLAP, the Ki came to 13 nM. In addition, the 50% inhibitory concentration (IC50) in test [1] (Homo sapiens) stood at 910 nM.
For the molecule `Cc1ccc(COc2ccc3nc(C4CCCC[C@H]4C(=O)O)n(Cc4ccc(N5CCC(F)(F)CC5)cc4F)c3c2)nc1` (mixture of isomers) [Example 161, racemic cis-2-{1-[4-(4,4-Difluoropiperidin-1-yl)-2-fluorobenzyl]-6-[(5-methylpyridin-2-yl)methoxy]-1H-benzimidazol-2-yl}cyclohexanecarboxylic acid], the inhibition constant Ki at human FLAP turned out to be 4 nM. Further, the 50% inhibitory concentration (IC50) in test [1] (Homo sapiens) was found to be 300 nM.
Consider `Cn1ccc(COc2cc(F)c3nc(C4CCCC[C@@H]4C(=O)O)n(Cc4ccc(N5CC(F)(F)C5)cc4)c3c2)n1` (mixture of isomers) [Example 168, racemic cis-2-{1-[4-(3,3-Difluoroazetidin-1-yl)benzyl]-4-fluoro-6-[(1-methyl-1H-pyrazol-3-yl)methoxy]-1H-benzimidazol-2-yl}cyclohexanecarboxylic acid as the formate salt], for which the Ki on human FLAP came out at 7.8 nM. Further, the IC50 in test [1] was determined as 3570 nM.
As to `Cn1ccc(COc2cc(F)c3nc([C@@H]4CCCC[C@@H]4C(=O)O)n(Cc4ccc(N5CCCCC5)cc4)c3c2)n1` (racemic) [Example 169, racemic cis-2-{4-Fluoro-6-[(1-methyl-1H-pyrazol-3-yl)methoxy]-1-(4-piperidin-1-ylbenzyl)-1H-benzimidazol-2-yl}cyclohexanecarboxylic acid as the HCl salt], the Ki at human FLAP came to 12 nM. For the same molecule, the concentration for half-maximal inhibition (IC50) in test [1] (Homo sapiens) amounted to 1220 nM.
Regarding `Cc1cnc(COc2ccc3nc([C@@H]4CCCC[C@@H]4C(=O)O)n(Cc4ccc(N5CCC(C)CC5)cc4)c3c2)c(F)c1` (racemic) [Example 178, racemic cis-2-{6-[(3-Fluoro-5-methylpyridin-2-yl)methoxy]-1-[4-(4-methylpiperidin-1-yl)benzyl]-1H-benzimidazol-2-yl}cyclohexanecarboxylic acid], the Ki on human FLAP worked out at 1.2 nM. Further, the IC50 in test [1] (Homo sapiens) stood at 47 nM.
Take `Cc1cnc(COc2ccc3nc([C@H]4CCCC[C@H]4C(=O)O)n(Cc4ccc(N5CCC(F)CC5)cc4)c3c2)c(F)c1` (relative stereo) [Example 176, (1R*,2S*)-2-{6-[(3-Fluoro-5-methylpyridin-2-yl)methoxy]-1-[4-(4-fluoropiperidin-1-yl)benzyl]-1H-benzimidazol-2-yl}cyclohexanecarboxylic acid]: the Ki at human FLAP came to 0.42 nM. Moreover, in test [1] (Homo sapiens), the IC50 was 110 nM.
For the molecule `Cc1cnc(COc2ccc3nc([C@H]4CCCC[C@H]4C(=O)O)n(Cc4ccc(-c5ccc(C(F)(F)F)cc5)cc4)c3c2)c(F)c1` (single isomer, unassigned) [Example 139, (1R*,2S*)-2-(6-[(3-Fluoro-5-methylpyridin-2-yl)methoxy]-1-{[4′-(trifluoromethyl)biphenyl-4-yl]methyl}-1H-benzimidazol-2-yl)cyclohexanecarboxylic acid], the Ki at human FLAP stood at 0.47 nM. In addition, the IC50 in test [1] (Homo sapiens) is 140 nM.
With `Cc1ccc(COc2ccc3nc([C@H]4CCCC[C@H]4C(=O)O)n(Cc4ccc(C#N)cc4)c3c2)nc1` (stereo in doubt) [Example 39, (1R*,2S*)-2-{1-(4-Cyanobenzyl)-6-[(5-methylpyridin-2-yl)methoxy]-1H-benzimidazol-2-yl}cyclohexanecarboxylic acid], the Ki at human FLAP stood at 10 nM. For the same molecule, the IC50 in test [1] (Homo sapiens) is 1070 nM.
As to `Cn1ccc(COc2ccc3nc([C@@H]4CCCC[C@@H]4C(=O)O)n(Cc4ccc(OC(F)(F)F)cc4F)c3c2)n1` (stereo in doubt) [Example 51, racemic cis-2-{1-[2-Fluoro-4-(trifluoromethoxy)benzyl]-6-[(1-methyl-1H-pyrazol-3-yl)methoxy]-1H-benzimidazol-2-yl}cyclohexanecarboxylic acid], the inhibitory constant (Ki) on human FLAP was determined as 8 nM. For the same molecule, the IC50 in test [1] (Homo sapiens) stood at 340 nM.
In the case of `Cn1ccc(COc2ccc3nc([C@@H]4CCCC[C@@H]4C(=O)O)n(Cc4ccc(OC(F)(F)F)cc4F)c3c2)n1` (stereo in doubt) [Example 52, (1S*,2R*)-2-{1-[2-Fluoro-4-(trifluoromethoxy)benzyl]-6-[(1-methyl-1H-pyrazol-3-yl)methoxy]-1H-benzimidazol-2-yl}cyclohexanecarboxylic acid], the inhibition constant (Ki) at human FLAP was more than 10000 nM. The 50% inhibitory concentration (IC50) in test [1] (Homo sapiens) is more than 10000 nM.
`Cn1ccc(COc2ccc3nc([C@H]4CCCC[C@H]4C(=O)O)n(Cc4ccc(OC(F)(F)F)cc4F)c3c2)n1` (stereo in doubt) [Example 53, (1R*,2S*)-2-(1-(2-Fluoro-4-(trifluoromethoxy)benzyl)-6-((1-methyl-1H-pyrazol-3-yl)methoxy)-1H-benzo[d]imidazol-2-yl)cyclohexanecarboxylic acid]: the inhibition constant Ki on human FLAP is 3 nM. The 50% inhibitory concentration (IC50) in test [1] (Homo sapiens) came out at 270 nM.
On the same counts, the results for `CCC(CC)(Cc1nc2ccc(OCc3ccc(C)cn3)cc2n1Cc1ccc(Br)cc1)C(=O)O` [Example 8, 2-({1-(4-Bromobenzyl)-6-[(5-methylpyridin-2-yl)methoxy]-1H-benzimidazol-2-yl}methyl)-2-ethylbutanoic acid as the TFA salt] are 10 nM and 2320 nM.
For the molecule `CCC(CC)(Cc1nc2ccc(OCc3ccc(C)cn3)cc2n1Cc1cccc(Br)c1)C(=O)O` [Example 14, 2-({1-(3-Bromobenzyl)-6-[(5-methylpyridin-2-yl)methoxy]-1H-benzimidazol-2-yl}methyl)-2-ethylbutanoic acid], the Ki at human FLAP was 56 nM. Moreover, in test [1] (Homo sapiens), the IC50 was more than 10000 nM.
On the same counts, the results for `CCC(CC)(Cc1nc2ccc(OCc3ccc(C)cn3)cc2n1Cc1ccc(OC(F)(F)F)cc1)C(=O)O` [Example 22, 2-Ethyl-2-({6-[(5-methylpyridin-2-yl)methoxy]-1-[4-(trifluoromethoxy)benzyl]-1H-benzimidazol-2-yl}methyl)butanoic acid] are 24 nM and 1660 nM.
For `CCC(CC)(Cc1nc2ccc(OCc3ccc(C)cn3)cc2n1Cc1ccc(OC(F)(F)F)cc1F)C(=O)O` [Example 23, 2-Ethyl-2-({1-[2-fluoro-4-(trifluoromethoxy)benzyl]-6-[(5-methylpyridin-2-yl)methoxy]-1H-benzimidazol-2-yl}methyl)butanoic acid], the Ki on human FLAP was 18 nM. The IC50 in test [1] (Homo sapiens) turned out to be 910 nM.
The like results for `CCC(CC)(Cc1nc2ccc(OCc3ccc(C)cn3)cc2n1Cc1ccc(OC(F)(F)F)c(Cl)c1)C(=O)O` [Example 24, 2-({1-[3-Chloro-4-(trifluoromethoxy)benzyl]-6-[(5-methylpyridin-2-yl)methoxy]-1H-benzimidazol-2-yl}methyl)-2-ethylbutanoic acid] were, in that order, 11 nM and more than 10000 nM.
